Data reported in patent US11364282B2, “Compositions, uses and methods for treatment of infertility and subfertility” (LO.LI. PHARMA S.R.L., priority 2017, dated 2022).

Key:
[1] = Pharmacokinetic evaluation in healthy subjects: myoinositol plus alpha lactalbumin (plasma myoinositol by GCMS); type: in vivo; settings: both sexes, human, single oral dose in powder, 6 g myoinositol alone or plus 150 mg alpha lactalbumin, 15 healthy volunteers, mean
Text: The present example describes a pharmacokinetic study combining the oral administration of myoinositol and alpha lactalbumin in healthy subjects. The study aims to determine whether the combination of myoinositol and alpha lactalbumin is able to increase the plasma level of myoinositol above that observed after administering myoinositol alone. The study involved 15 healthy volunteers, 6 men and 9 women. […] Subjects received orally 6 g of myoinositol in powder form and then, after a washout period of 7 days, 6 g of myoinositol and 150 mg alpha lactalbumin, also in powder form.

[2] = test system: anovulatory PCOS patients; test: Clinical evaluation on PCOS women: ovulation assessed by ultrasound examination; type: in vivo, human; settings: two sachets per day
Text: The present study aims to develop an efficacious therapy in women suffering from PCOS based on the improved absorption of inositol, e.g. myoinositol, when administered in combination with alpha lactalbumin. Specifically, while treatment of PCOS with myoinositol alone correlates to an improvement in the disease in a significant number of women, there remain women who still fail to respond to treatment with myoinositol alone. The present inventors thus sought to determine whether the higher level of myoinositol absorption observed when administering myoinositol together with alpha lactalbumin might allow successful treatment of PCOS patients who had previously not responded to treatment with myoinositol alone. If so, then the treatment of PCOS with inositol in combination with alpha lactalbumin, e.g. myoinositol in combination with alpha lactalbumin, would represent a significant therapeutic advance, allowing treatment of PCOS in previously recalcitrant cases, thereby substantially extending the therapeutic benefit of inositol, e.g. myoinositol, in treating PCOS.
The present study included 20 anovulatory PCOS patients.
Inclusion criteria were: age 20-35 years; PCOS according to Rotterdam ESHRE-ASRM consensus workshop group; anovulation and infertility >1 year. Indeed, according to Rotterdam criteria, PCOS was diagnosed performed if 2 out of the 3 following factors were fulfilled: a) oligo- or anovulation, b) clinical and/or biochemical signs of hyperandrogenism, and c) polycystic ovaries.
Patients were excluded in the event of other conditions causing ovulatory dysfunction, such as hyperprolactinemia or hypothyroidism, or androgen excess, such as adrenal hyperplasia or Cushing's syndrome, and also in the case of intake of other drugs that can potentially influence ovulation.
All the patients were given myoinositol (Inofolic®, Lo.Li. Pharma, Rome, Italy), containing 2 g myoinositol and 0.2 mg folic acid in dose of two sachets per day before meals, in order to induce ovulation.
Ovulation was assessed using ultrasound examination on days 12, 14 and 20 of the cycle. Treatment was performed for three months.
These 7 non-responders then became the subject of a second phase of the study, in which they received treatment with myoinositol in combination with alpha lactalbumin.
(§1) Specifically, myoinositol plasma levels were tested in these non-responding patients; a mean value of 17±3.5 μmol/l myoinositol was observed. Successively, a treatment with 2 g myoinositol, 0.2 mg folic acid and 50 mg alpha lactalbumin was performed in doses of two powder sachets per day before meals during the next three months. Of the 7 myoinositol resistant patients after combined treatment with myoinositol and alpha lactalbumin, 5 of the original non-responders (i.e. 71% of the original non-responders) ovulated. […]

[3] = clinical; settings: female, human, in vivo
Procedure: as §1

[4] = test system: women affected by idiopathic infertility; test: Clinical evaluation on women affected by idiopathic infertility: biochemical pregnancy (beta hCG assay); type: in vivo, human; settings: first phase: 40 women; 2 g myoinositol + 0.2 mg folic acid (Inofolic), two sachets per day, 3 months
Text: The present study aims to develop an efficacious therapy in women suffering from idiopathic infertility based on the improved absorption of inositol, e.g. myoinositol, when administered in combination with alpha lactalbumin. Specifically, while treatment of idiopathic infertility with myoinositol alone correlates to an improvement in the disease in a significant number of women, there remain women who still fail to respond to treatment with myoinositol alone. The present inventors thus sought to determine whether the higher level of myoinositol absorption observed when administering myoinositol together with alpha lactalbumin might allow successful treatment of idiopathic infertility patients who had previously not responded to treatment with myoinositol alone. If so, then the treatment of idiopathic infertility with inositol in combination with alpha lactalbumin, e.g. myoinositol in combination with alpha lactalbumin, would represent a significant therapeutic advance, allowing treatment of idiopathic infertility in previously recalcitrant cases, thereby substantially extending the therapeutic benefit of inositol, e.g. myoinositol, in treating idiopathic infertility. The present study included 40 women affected by idiopathic infertility. Inclusion criteria were: women affected by idiopathic infertility as defined below, aged 30-40 years, who were not receiving any therapy with drugs which potentially influence ovulation. Patients were given a thorough evaluation and were tested for a number of diseases, as described in the following. Testing positive for any of these diseases tested sufficed to exclude a patient as being “idiopathically infertile”. Specifically, patients were excluded from this trial in the event they were diagnosed positive for any of: hyperprolactinemia, hypothyroidism, Cushing's syndrome, adrenal hyperplasia, obesity, polycystic ovary syndrome (PCOS) or anovulation. The person skilled in the art can routinely diagnose each of the above mentioned conditions. For example, hyperprolactinemia can be diagnosed when serum prolactin levels are found to be over 20 μg/L, as e.g. described in Serri et al., CMAJ, 2003, 169(6): 575-581. Hypothyroidism can be diagnosed when the serum TSH level is found to be over 4.5 mIU/L (Garber et al., CLINICAL PRACTICE GUIDELINES FOR HYPOTHYROIDISM IN ADULTS: COSPONSORED BY THE AMERICAN ASSOCIATION OF CLINICAL ENDOCRINOLOGISTS AND THE AMERICAN THYROID ASSOCIATION; Endocrine Practice vol. 18 No. 6, 2012). Cushing's syndrome can be diagnosed according to Nieman et al., J. Clin. Endocrinol. […] The primary readout was the achievement of biochemical pregnancy as assessed using an assay (HCG Combo Card, Shanghai Chemtron Biotech Co., Ltd., catalog.no. 6011C31-4) for beta human chorionic gonadotropin (beta hCG). […]

[5] = test system: anovulatory PCOS women; settings: 4 g/day myoinositol; cited from earlier work
[6] = first phase: 20 anovulatory PCOS patients, 2 g myoinositol + 0.2 mg folic acid (Inofolic), three months

O[C@H]1[C@H](O)[C@@H](O)[C@H](O)[C@@H](O)[C@H]1O [myoinositol]
Cmax [1]: 98 µM | Tmax [1]: 3 h | OVULATION T3 (number of patients) ([2]; 7 PCOS patients non-responsive to myoinositol, after 3 months of the treatment, combination: 2 g myoinositol, 0.2 mg folic acid, 50 mg alpha lactalbumin): 0 | women resistant, did not ovulate (%) [2, 6]: 35% | women resistant, did not ovulate (number of 20) [2, 6]: 7 | women who ovulated (%) [2, 6]: 65% | women who ovulated (number of 20) [2, 6]: 13 | concentration at 3 months [3]: 17 ± 3.5 µM | myoinositol plasma level in patients who responded positively [3]: 38 µmol/L | MYOINOSITOL PLASMA LEVELS T3 mean (±SD) ([3]; 3 months): 17 (3.5) μmol/l | Achieving biochemical pregnancy % [4]: 52.5% | Achieving biochemical pregnancy (number) [4]: 21 | Not achieving biochemical pregnancy % [4]: 47.5% | Not achieving biochemical pregnancy (number) [4]: 19 | non-responders (patients who did not ovulate after treatment) [5]: 38.3%
